For test [1], the target named is T1, hsst 2 (Homo sapiens, UniProt P30874).
T1 construct: expressed in transfected cells
The experiment in a line: In vitro binding affinity, transfected cell lines, hsst 2. As to conditions: IC50±SEM; applicant's series, with own SS-28 reference.

For test [2], the target named is T2, hsst 3 (Homo sapiens, UniProt P32745).
T2 construct: expressed in transfected cells
The experiment in a line: In vitro binding affinity, transfected cell lines, hsst 3. As to conditions: IC50±SEM; applicant's series, with own SS-28 reference.

Test [3] has as its target T3, hsst 5 (Homo sapiens, UniProt P35346).
T3 construct: expressed in transfected cells
The test can be described thus: In vitro binding affinity, transfected cell lines, hsst 5. Particulars: IC50±SEM; applicant's series, with own SS-28 reference.

Test [4] has as its target T4, hsst 4 (Homo sapiens, UniProt P31391).
T4 construct: expressed in transfected cells
The test can be described thus: In vitro binding affinity, transfected cell lines, hsst 4. As to conditions: IC50±SEM; applicant's series, with own SS-28 reference.

In test [5] the target is T4, hsst 4. Particulars: IC50±SEM; published series (Reubi et al.), referenced to SS-28; cited from earlier work.
Test [6] addresses T3, hsst 5. Particulars: IC50±SEM; published series (Reubi et al.), referenced to SS-28; cited from earlier work.
Test [7] concerns the target T2, hsst 3. As to conditions: IC50±SEM; published series (Reubi et al.), referenced to SS-28; cited from earlier work.
The target in test [8] is T1, hsst 2. Particulars: IC50±SEM; published series (Reubi et al.), referenced to SS-28; cited from earlier work.

Where two headings read alike, the source gives them in different places. A value given as a limit tells only on which side of the number the result lay.

In general, IC50 refers to the midpoint of a concentration-inhibition curve.

T3 sequence (P35346 whole entry): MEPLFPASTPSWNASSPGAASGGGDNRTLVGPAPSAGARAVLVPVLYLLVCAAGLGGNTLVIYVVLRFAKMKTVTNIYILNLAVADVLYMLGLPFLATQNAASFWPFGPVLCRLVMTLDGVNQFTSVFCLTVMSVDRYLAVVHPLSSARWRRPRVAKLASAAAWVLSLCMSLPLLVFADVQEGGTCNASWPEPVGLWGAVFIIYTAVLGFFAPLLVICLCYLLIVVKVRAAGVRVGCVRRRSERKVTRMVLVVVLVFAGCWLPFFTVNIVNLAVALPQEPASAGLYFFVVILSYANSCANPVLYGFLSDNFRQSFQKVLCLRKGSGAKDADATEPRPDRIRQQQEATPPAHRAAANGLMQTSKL
T2 sequence (P32745 whole entry): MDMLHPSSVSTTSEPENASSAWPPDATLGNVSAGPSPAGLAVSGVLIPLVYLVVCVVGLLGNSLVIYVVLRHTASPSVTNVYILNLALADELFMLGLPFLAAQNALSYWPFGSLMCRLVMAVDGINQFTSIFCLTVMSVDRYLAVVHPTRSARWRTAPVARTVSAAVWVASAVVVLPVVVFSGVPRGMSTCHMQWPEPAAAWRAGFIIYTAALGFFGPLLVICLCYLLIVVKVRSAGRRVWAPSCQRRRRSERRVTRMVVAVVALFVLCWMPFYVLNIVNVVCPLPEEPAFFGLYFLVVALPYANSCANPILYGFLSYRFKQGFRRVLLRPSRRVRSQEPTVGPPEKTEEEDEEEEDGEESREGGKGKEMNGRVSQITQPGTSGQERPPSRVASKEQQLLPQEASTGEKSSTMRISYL
T1 sequence (P30874 whole entry): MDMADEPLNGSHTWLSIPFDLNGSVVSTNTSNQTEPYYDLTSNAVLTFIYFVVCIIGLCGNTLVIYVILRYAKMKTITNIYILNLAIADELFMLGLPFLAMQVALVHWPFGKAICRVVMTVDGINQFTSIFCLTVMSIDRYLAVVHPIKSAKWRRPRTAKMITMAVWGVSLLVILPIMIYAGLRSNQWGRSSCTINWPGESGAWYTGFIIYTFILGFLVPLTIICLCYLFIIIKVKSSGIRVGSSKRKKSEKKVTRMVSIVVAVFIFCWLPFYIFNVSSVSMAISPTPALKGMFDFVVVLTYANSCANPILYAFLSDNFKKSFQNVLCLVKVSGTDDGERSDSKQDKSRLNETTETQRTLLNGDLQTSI
T4 sequence (P31391 whole entry): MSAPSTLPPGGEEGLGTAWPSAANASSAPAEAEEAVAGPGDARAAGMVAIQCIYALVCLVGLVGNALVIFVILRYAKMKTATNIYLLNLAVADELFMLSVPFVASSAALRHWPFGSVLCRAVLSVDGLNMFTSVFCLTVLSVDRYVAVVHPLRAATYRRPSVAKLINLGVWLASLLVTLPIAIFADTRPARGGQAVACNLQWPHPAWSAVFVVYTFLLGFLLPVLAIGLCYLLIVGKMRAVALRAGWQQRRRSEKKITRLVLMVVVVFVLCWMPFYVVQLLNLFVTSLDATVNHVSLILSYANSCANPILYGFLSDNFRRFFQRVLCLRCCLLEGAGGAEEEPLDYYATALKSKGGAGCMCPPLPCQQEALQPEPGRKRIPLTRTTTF

Turning to `C[C@@H](O)[C@H](NC(=O)[C@@H]1CSSC[C@H](NC(=O)[C@H](N)Cc2ccccc2)C(=O)N[C@@H](Cc2csc3ccccc23)C(=O)N[C@H](Cc2c[nH]c3ccccc23)C(=O)N[C@@H](CCCCN)C(=O)N[C@@H]([C@@H](C)O)C(=O)N1)C(=O)O` [compound 13, H-(D)Phe-cyclo[Cys-3-benzothienylalanyl-(D)Trp-Lys-Thr-Cys]-Thr-OH], the IC50 on hsst 2 [1] came out at 0.43 nM; at hsst 3 [2] it was 27 nM; at hsst 5 [3] it was 2.1 nM; at hsst 4 [4] it was 60 nM.
The corresponding values for `C[C@@H](O)[C@@H]1NC(=O)[C@H](CCCCN)NC(=O)[C@@H](Cc2c[nH]c3ccccc23)NC(=O)[C@H](Cc2cccc3ccccc23)NC(=O)[C@@H](NC(=O)[C@@H](Cc2ccccc2)NC(=O)CN2CCN(CC(=O)O)CCN(CC(=O)O)CCN(CC(=O)O)CC2)CSSC[C@@H](C(=O)N[C@H](CO)[C@@H](C)O)NC1=O` [cpd. 8, Y-DOTA-[1-Nal^3]-OC] are 3.3 ± 0.2 nM, 26 ± 1.9 nM, 10 ± 1.6 nM and over 1000 nM.
The corresponding values for `C[C@@H](O)[C@H](NC(=O)[C@@H]1CSSC[C@H](NC(=O)[C@@H](Cc2ccccc2)NC(=O)CN2CCN(CC(=O)O)CCN(CC(=O)O)CCN(CC(=O)O)CC2)C(=O)N[C@@H](Cc2csc3ccccc23)C(=O)N[C@H](Cc2c[nH]c3ccccc23)C(=O)N[C@@H](CCCCN)C(=O)N[C@@H]([C@@H](C)O)C(=O)N1)C(=O)O` [cpd. 11, ^111In-labelled DOTA-(D)Phe-cyclo[Cys-3-benzothienylalanyl-(D)Trp-Lys-Thr-Cys]Thr-OH, metal not drawn] are 1.1 nM, 7 nM, 4 nM and 110 nM.
For Y-DOTA-LAN [cpd. 5], the IC50 at hsst 4 [5] is over 1000 nM; at hsst 5 [6] it was 16 ± 3.4 nM; on hsst 3 [7] it was 290 ± 105 nM; at hsst 2 [8], 23 ± 5 nM.
For Y-DOTA-OC [compound 4], the 50% inhibitory concentration (IC50) at hsst 4 [5] is over 1000 nM; at hsst 2 [8] it was 20 ± 2 nM.
For the compound Y-DOTA-TOC [cpd. 6], the values for the IC50 at hsst 4 [5] and on hsst 2 [8] were over 10000 nM and 11 ± 1.7 nM, respectively.

Values taken from patent EP1501554B1, “BENZOTHIENYL ANALOGUE OF SOMATOSTATINE, SELECTIVE FOR CERTAIN SOMATOSTATIN RECEPTORS” (Advanced Accelerator Applications USA, Inc., priority 2002, dated 2003).
